Experimental findings from ChEMBL document CHEMBL1141582, “Multi-target-directed coumarin derivatives: hAChE and BACE1 inhibitors as potential anti-Alzheimer compounds” (Bioorg Med Chem Lett, 2008) are described below.

In one experiment the target is Acetylcholinesterase (Homo sapiens, UniProt P22303). Put plainly: Inhibition of human recombinant AChE by Ellman method.
For a further experiment, the target named is Beta-secretase 1 (Homo sapiens, UniProt P56817). The experiment in a line: Inhibition of human recombinant BACE1 by spectrofluorimetric method.
Beta-secretase 1, sequence (P56817 whole entry): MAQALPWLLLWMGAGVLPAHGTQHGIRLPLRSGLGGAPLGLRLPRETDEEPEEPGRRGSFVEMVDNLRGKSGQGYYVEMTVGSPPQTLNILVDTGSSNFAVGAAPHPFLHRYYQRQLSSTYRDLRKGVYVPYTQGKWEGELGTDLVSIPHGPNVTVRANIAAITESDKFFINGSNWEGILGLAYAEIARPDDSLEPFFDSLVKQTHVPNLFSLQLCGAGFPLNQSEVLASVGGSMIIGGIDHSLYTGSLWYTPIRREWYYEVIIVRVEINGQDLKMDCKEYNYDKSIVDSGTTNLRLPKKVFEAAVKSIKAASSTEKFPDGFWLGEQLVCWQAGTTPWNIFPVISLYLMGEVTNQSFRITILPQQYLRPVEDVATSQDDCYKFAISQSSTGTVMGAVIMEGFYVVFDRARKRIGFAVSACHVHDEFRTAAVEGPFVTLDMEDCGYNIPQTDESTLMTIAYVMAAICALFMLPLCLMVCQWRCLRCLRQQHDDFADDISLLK

Acetylcholinesterase, sequence (P22303 whole entry): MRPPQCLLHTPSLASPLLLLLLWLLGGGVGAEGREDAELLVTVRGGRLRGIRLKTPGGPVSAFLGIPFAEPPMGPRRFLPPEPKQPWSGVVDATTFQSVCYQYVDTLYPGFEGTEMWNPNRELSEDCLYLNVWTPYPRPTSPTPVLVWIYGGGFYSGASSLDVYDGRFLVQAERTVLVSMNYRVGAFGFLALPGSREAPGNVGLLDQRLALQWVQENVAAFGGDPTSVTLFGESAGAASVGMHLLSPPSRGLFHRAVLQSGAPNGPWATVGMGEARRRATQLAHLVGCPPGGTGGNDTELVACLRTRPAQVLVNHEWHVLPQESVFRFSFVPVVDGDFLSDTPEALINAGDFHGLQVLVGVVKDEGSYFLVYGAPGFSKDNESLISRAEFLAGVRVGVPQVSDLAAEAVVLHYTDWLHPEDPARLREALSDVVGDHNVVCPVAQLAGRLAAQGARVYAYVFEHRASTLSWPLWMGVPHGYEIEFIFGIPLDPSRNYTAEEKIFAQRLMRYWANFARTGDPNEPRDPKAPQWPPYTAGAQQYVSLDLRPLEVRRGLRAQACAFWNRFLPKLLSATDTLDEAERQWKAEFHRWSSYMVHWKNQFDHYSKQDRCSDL

For the compound `CCN(Cc1ccccc1)Cc1ccc(-c2cc3cc(OCCNC(=O)/C=C/c4cc(F)cc(F)c4)ccc3oc2=O)cc1`, the figures for the IC50 at Acetylcholinesterase and on Beta-secretase 1 were 7160 nM and 99 nM, respectively.
For `CCN(Cc1ccccc1)Cc1ccc(-c2cc3cc(OCCNC(=O)CCc4ccc(F)c(F)c4)ccc3oc2=O)cc1` the same measures were 2770 nM and 116 nM.
The corresponding values for `CCN(Cc1ccccc1)Cc1ccc(-c2cc3ccc(OCCNC(=O)Cc4cc(F)cc(F)c4)cc3oc2=O)cc1` are 181 nM and 150 nM.
On to `CCN(Cc1ccccc1)Cc1ccc(-c2cc3ccc(OCCNC(=O)/C=C/c4ccc(Cl)c(Cl)c4)cc3oc2=O)cc1`, for which the IC50 was determined as 4230 nM on Acetylcholinesterase and 151 nM on Beta-secretase 1.
For `CCN(Cc1ccccc1)Cc1ccc(-c2cc3ccc(OCCNC(=O)/C=C/c4cc(F)cc(F)c4)cc3oc2=O)cc1` the same measures were 4570 nM and 121 nM.
The corresponding values for `CCN(Cc1ccccc1)Cc1ccc(-c2cc3ccc(OCCNC(=O)CCc4ccc(F)c(F)c4)cc3oc2=O)cc1` are 327 nM and 114 nM.
The corresponding values for `CCN(Cc1ccccc1)Cc1ccc(-c2cc3cc(OCCNC(=O)Cc4cc(F)cc(F)c4)ccc3oc2=O)cc1` are 551 nM and 149 nM.
As to `CCN(Cc1ccccc1)Cc1ccc(-c2cc3cc(OCCNC(=O)/C=C/c4ccc(Cl)c(Cl)c4)ccc3oc2=O)cc1`, the results for the IC50 on Acetylcholinesterase and at Beta-secretase 1 were 267000 nM and 133 nM, respectively.
